Measurements reported in paper PMC12040169 (PLOS Biology, 2025).

Experiment: in vitro
Conditions: human, hela cells, % viability

Going from `COc1ccc(CCN2CCCN(c3nccc(OCc4ccc(Cl)c(Cl)c4)n3)CC2)cc1OC` [CBK083965] to `COc1ccc(Oc2nccc(N3CCCN(CCc4ccc5ccccc5c4)CC3)n2)cc1OC` [CBK084164], the viability at 28.5 h, 10 µM falls from 96.4% to 87%.

First: Clc1ccc(CN2CCCN(c3nccc(OCC4COc5ccccc5O4)n3)CC2)cc1Cl (centres unmarked) [CBK083967]
Second: Clc1ccc(CN2CCCN(c3nccc(OCC4COc5ccccc5O4)n3)CC2)cc1 (centres unmarked) [CBK084038]
The viability at 28.5 h, 10 µM of the first is higher: 97.3% for the first, 84.9% for the second.

Going from `c1cncc(CN2CCCN(c3nccc(OCC4COc5ccccc5O4)n3)CC2)c1` (centres unmarked) [CBK083969] to `N#CCCCN1CCCN(c2nccc(OCC3COc4ccccc4O3)n2)CC1` (centres unmarked) [CBK083977], the viability at 28.5 h, 10 µM falls from 112% to 90.2%.

Compared with `Cc1cccc(C)c1NC(=O)CN1CCCN(c2nccc(OCC3COc4ccccc4O3)n2)CC1` (centres unmarked) [CBK083974], `CCOC(=O)CN1CCCN(c2nccc(OCC3COc4ccccc4O3)n2)CC1` (centres unmarked) [CBK083975] is lower in viability at 28.5 h, 10 µM: 102% for the first, 100% for the second.

First: c1ccc2c(c1)OCC(COc1ccnc(N3CCCN(CCc4ccc5ccccc5c4)CC3)n1)O2 (centres unmarked) [CBK083983]
Second: c1cncc(COc2ccnc(N3CCCN(Cc4ccc5c(c4)OCO5)CC3)n2)c1 [CBK084112]
The viability at 28.5 h, 10 µM of the first is lower: 90.7% for the first, 92.5% for the second.

Compared with `COc1ccnc(N2CCCN(CC(N)=O)CC2)n1` [CBK083992], `COc1ccnc(N2CCCN(CCN3CCOCC3)CC2)n1` [CBK084120] is higher in viability at 28.5 h, 10 µM: 87.2% for the first, 119% for the second.

Compared with `CS(=O)(=O)N1CC2(CCN(Cc3ccccc3F)CC2)c2ccccc21` [CBK084004], `CS(=O)(=O)N1CC2(CCN(CCc3c[nH]c4ccccc34)CC2)c2ccccc21` [CBK084017T] is lower in viability at 28.5 h, 10 µM: 103% for the first, 97.9% for the second.

Going from `CS(=O)(=O)N1CC2(CCN(Cc3ccc([N+](=O)[O-])cc3)CC2)c2ccccc21` [CBK084010] to `CS(=O)(=O)N1CC2(CCN(Cc3ccc(Cl)c(Cl)c3)CC2)c2ccccc21` [CBK084043], the viability at 28.5 h, 10 µM falls from 104% to 102%.

Going from `CS(=O)(=O)N1CC2(CCN(CC3CCCCC3)CC2)c2ccccc21` [CBK084018] to `CS(=O)(=O)Nc1nccnc1OC1CCN(CC2CCCCC2)CC1` [CBK084284], the viability at 28.5 h, 10 µM falls from 96.8% to 89.9%.

Going from `Clc1ccc(COc2cc(N3CCCN(CC4CC4)CC3)ncn2)cc1Cl` [CBK084070] to `Cc1cc(COc2ccnc(N3CCCN(CC4CC4)CC3)n2)no1` [CBK084073], the viability at 28.5 h, 10 µM rises from 90.8% to 91.1%.

First: c1cncc(COc2ccnc(N3CCCN(CCN4CCOCC4)CC3)n2)c1 [CBK084122]
Second: c1cncc(COc2cncc(OC3CCN(CCN4CCOCC4)C3)n2)c1 (centres unmarked) [CBK084463]
The viability at 28.5 h, 10 µM of the first is lower: 88.5% for the first, 99.7% for the second.

First: Cc1cc(COc2ccnc(N3CCCN(CCCC#N)CC3)n2)no1 [CBK084144]
Second: Cc1cc(COc2nccnc2N2CCN(CCCO)CC2)no1 [CBK084197]
The viability at 28.5 h, 10 µM of the first is higher: 96.8% for the first, 89.6% for the second.

Compared with `Cc1cc(COc2nccnc2N2CCN(CC(N)=O)CC2)no1` [CBK084192], `COc1ccc(CCN2CCN(c3nccnc3OCc3cc(C)on3)CC2)cc1OC` [CBK084207] is higher in viability at 28.5 h, 10 µM: 91% for the first, 105% for the second.

Compared with `Cc1cc(COc2nccnc2N2CCN(CCCn3c(=O)[nH]c4ccccc43)CC2)no1` [CBK084199], `O=C1CCC(=O)N1CCOc1nccnc1N1CCN(CCc2c[nH]c3ccccc23)CC1` [CBK084304] is lower in viability at 28.5 h, 10 µM: 107% for the first, 95.5% for the second.

Going from `COc1nccnc1N1CCN(Cc2ccc(Cl)c(Cl)c2)CC1` [CBK084209] to `COc1nccnc1N1CCN(Cc2ccccc2)CC1` [CBK084210], the viability at 28.5 h, 10 µM falls from 92.1% to 90%.

Compared with `COc1nccnc1N1CCN(Cc2cccnc2)CC1` [CBK084213], `COc1nccnc1N1CCN(CCc2ccccc2)CC1` [CBK084228] is higher in viability at 28.5 h, 10 µM: 91.2% for the first, 102% for the second.

Compared with `COc1nccnc1N1CCN(Cc2ccc([N+](=O)[O-])cc2)CC1` [CBK084217], `COc1nccnc1OC1CCN(Cc2ccc([N+](=O)[O-])cc2)CC1` [CBK084245] is higher in viability at 28.5 h, 10 µM: 103% for the first, 105% for the second.

Going from `COc1nccnc1N1CCN(CC(=O)Nc2c(C)cccc2C)CC1` [CBK084220] to `COc1nccnc1OC1CCN(CC(=O)Nc2c(C)cccc2C)CC1` [CBK084249], the viability at 28.5 h, 10 µM rises from 89.1% to 96.1%.

Compared with `COc1nccnc1N1CCN(CCCC#N)CC1` [CBK084225], `COc1nccnc1N1CCN(CCSC)CC1` [CBK084227] is higher in viability at 28.5 h, 10 µM: 86.9% for the first, 90.2% for the second.

First: COc1nccnc1N1CCN(CCOc2ccccc2)CC1 [CBK084230]
Second: COc1nccnc1OC1CCN(CCOc2ccccc2)CC1 [CBK084260]
The viability at 28.5 h, 10 µM of the first is lower: 94.1% for the first, 94.4% for the second.

First: COc1nccnc1N1CCN(CCc2c[nH]c3ccccc23)CC1 [CBK084231]
Second: COc1nccnc1OC1CCN(CCc2c[nH]c3ccccc23)CC1 [CBK084261]
The viability at 28.5 h, 10 µM of the first is lower: 89.2% for the first, 93.6% for the second.

Compared with `COc1nccnc1OC1CCN(Cc2ccccc2)CC1` [CBK084238], `COc1nccnc1OC1CCN(Cc2ccc(Cl)cc2)CC1` [CBK084240] is lower in viability at 28.5 h, 10 µM: 103% for the first, 98.7% for the second.

First: COc1nccnc1OC1CCN(Cc2ccccc2-c2ccccc2)CC1 [CBK084246]
Second: COc1nccnc1OC1CCN(CCCC#N)CC1 [CBK084255]
The viability at 28.5 h, 10 µM of the first is lower: 87.7% for the first, 90% for the second.

Compared with `COc1nccnc1OC1CCN(CC2CCCCC2)CC1` [CBK084263], `O=C1CCC(=O)N1CCOc1nccnc1OC1CCN(CC2CCCCC2)CC1` [CBK084357] is higher in viability at 28.5 h, 10 µM: 96.2% for the first, 105% for the second.

Going from `CS(=O)(=O)Nc1nccnc1N1CCN(Cc2ccccc2)CC1` [CBK084268] to `COc1ccc(CN2CCN(c3nccnc3NS(C)(=O)=O)CC2)cc1` [CBK084273], the viability at 28.5 h, 10 µM falls from 96.5% to 88.7%.

First: CC(C)c1ccc(CN2CCN(c3nccnc3NS(C)(=O)=O)CC2)cc1 [CBK084271]
Second: O=C1CCC(=O)N1CCOc1nccnc1N1CCN(Cc2ccc(Cl)cc2)CC1 [CBK084290]
The viability at 28.5 h, 10 µM of the first is lower: 91% for the first, 96.1% for the second.

First: COc1ccc(CCN2CCC(Oc3nccnc3NS(C)(=O)=O)CC2)cc1OC [CBK084285]
Second: CS(=O)(=O)Nc1nccnc1OC1CCN(CCc2ccccn2)CC1 [CBK084286]
The viability at 28.5 h, 10 µM of the first is lower: 103% for the first, 109% for the second.

Compared with `O=C1CCC(=O)N1CCOc1nccnc1N1CCN(Cc2ccccc2)CC1` [CBK084288], `O=C1CCC(=O)N1CCOc1nccnc1N1CCN(CCc2ccccc2)CC1` [CBK084302] is higher in viability at 28.5 h, 10 µM: 87.9% for the first, 99.4% for the second.

First: O=C1CCC(=O)N1CCOc1nccnc1N1CCN(Cc2ccccc2F)CC1 [CBK084289]
Second: O=C1CCC(=O)N1CCOc1nccnc1N1CCN(CCc2ccccn2)CC1 [CBK084309]
The viability at 28.5 h, 10 µM of the first is lower: 97.8% for the first, 109% for the second.

Going from `N#CCCCN1CCN(c2nccnc2OCCN2C(=O)CCC2=O)CC1` [CBK084299] to `O=C1CCC(=O)N1CCOc1nccnc1N1CCN(CC2CC2)CC1` [CBK084305], the viability at 28.5 h, 10 µM falls from 102% to 93.9%.

First: O=C1CCC(=O)N1CCOc1nccnc1N1CCN(CC2CCCCC2)CC1 [CBK084306]
Second: O=C1CCC(=O)N1CCOc1nccnc1N1CCN(CCc2ccc3ccccc3c2)CC1 [CBK084307]
The viability at 28.5 h, 10 µM of the first is lower: 88.9% for the first, 96.4% for the second.

First: Nc1ccc(-c2ccccc2)c2ccccc12 [CBK084312]
Second: Nc1ccc(-c2cccc(C(F)(F)F)c2)c2ccccc12 [CBK084324]
The viability at 28.5 h, 10 µM of the first is higher: 97.1% for the first, 80% for the second.

Compared with `Nc1ccc(-c2cc(F)cc(F)c2)c2ccccc12` [CBK084314], `COc1cc(F)ccc1-c1ccc(N)c2ccccc12` [CBK084319] is higher in viability at 28.5 h, 10 µM: 93.2% for the first, 103% for the second.

First: Nc1ccc(-c2ccc3c(c2)OCCCO3)c2ccccc12 [CBK084325]
Second: CS(=O)(=O)c1ccc(-c2ccc(N)c3ccccc23)cc1 [CBK084326]
The viability at 28.5 h, 10 µM of the first is lower: 87.9% for the first, 95.4% for the second.

Going from `COc1cc(-c2ccc(N)c3ccccc23)cc(OC)c1OC` [CBK084332] to `CCOC(=O)CN1CCC(Oc2cncc(Oc3ccc(OC)c(OC)c3)n2)C1` (centres unmarked) [CBK084405], the viability at 28.5 h, 10 µM rises from 83.5% to 91.3%.

Going from `O=C1CCC(=O)N1CCOc1nccnc1OC1CCN(Cc2ccc(C(F)(F)F)cc2)CC1` [CBK084341] to `O=C1CCC(=O)N1CCOc1nccnc1OC1CCN(CCc2ccc3ccccc3c2)CC1` [CBK084358], the viability at 28.5 h, 10 µM rises from 96% to 99.4%.

Going from `N#CCCCN1CCC(Oc2nccnc2OCCN2C(=O)CCC2=O)CC1` [CBK084349] to `CSCCN1CCC(Oc2nccnc2OCCN2C(=O)CCC2=O)CC1` [CBK084351], the viability at 28.5 h, 10 µM rises from 99.4% to 100%.

First: O=C1CCC(=O)N1CCOc1nccnc1OC1CCN(CCCn2c(=O)[nH]c3ccccc32)CC1 [CBK084350]
Second: O=C1CCC(=O)N1CCOc1nccnc1OC1CCN(CCc2c[nH]c3ccccc23)CC1 [CBK084355]
The viability at 28.5 h, 10 µM of the first is lower: 90.2% for the first, 94.6% for the second.

First: O=C1CCC(=O)N1CCOc1nccnc1OC1CCN(CCc2ccccn2)CC1 [CBK084360]
Second: OCCCN1CCC(Oc2cncc(OCc3cccnc3)n2)C1 (centres unmarked) [CBK084465]
The viability at 28.5 h, 10 µM of the first is higher: 99.5% for the first, 91.7% for the second.

Compared with `O=[N+]([O-])c1ccc(CN2CCC(Oc3cncc(OCC4COc5ccccc5O4)n3)C2)cc1` (centres unmarked) [CBK084369], `Fc1ccc(CCN2CCC(Oc3cncc(OCC4COc5ccccc5O4)n3)C2)cc1` (centres unmarked) [CBK084383] is higher in viability at 28.5 h, 10 µM: 99.3% for the first, 99.8% for the second.

Going from `COc1ccc(Oc2cncc(OC3CCN(CC4CCCCC4)C3)n2)cc1OC` (centres unmarked) [CBK084413] to `CCOC(=O)CN1CCC(Oc2cncc(OCc3ccc(Cl)c(Cl)c3)n2)C1` (centres unmarked) [CBK084432], the viability at 28.5 h, 10 µM falls from 96.4% to 91.7%.

Compared with `CCN(CC)C(=O)CN1CCC(Oc2cncc(OCc3ccc(Cl)c(Cl)c3)n2)C1` (centres unmarked) [CBK084431], `CCOC(=O)CN1CCC(Oc2cncc(OCc3cccnc3)n2)C1` (centres unmarked) [CBK084462] is higher in viability at 28.5 h, 10 µM: 98.2% for the first, 99.4% for the second.

Going from `Clc1ccc(CN2CCC(Oc3cncc(OCc4cccnc4)n3)C2)cc1` (centres unmarked) [CBK084451] to `O=[N+]([O-])c1ccc(CN2CCC(Oc3cncc(OCc4cccnc4)n3)C2)cc1` (centres unmarked) [CBK084456], the viability at 28.5 h, 10 µM falls from 104% to 91.6%.

First: c1cncc(COc2cncc(OC3CCN(Cc4ccc5c(c4)OCO5)C3)n2)c1 (centres unmarked) [CBK084458]
Second: Fc1ccc(CCN2CCC(Oc3cncc(OCc4cccnc4)n3)C2)cc1 (centres unmarked) [CBK084469]
The viability at 28.5 h, 10 µM of the first is lower: 88.9% for the first, 97.8% for the second.

In the case of `N#CCCCN1CCC(Oc2cncc(OCc3cccnc3)n2)C1` (centres unmarked) [CBK084466], the viability at 28.5 h, 10 µM is reported as 105%.
